Reference: patent US6716858B1, “Methods for inhibiting diabetic complications” (Kansas University Medical Center, priority 1995, dated 2004)

Columns and labels:
[1] = test system: AGE formation in bovine serum albumin (BSA); assay: Uninterrupted glycation of BSA with glucose, anti-AGE ELISA; assay type: biochemical; conditions: BSA 10 mg/ml, 1.0 M glucose, pH 7.5, 37° C., 6 weeks; inhibitors 3, 15 and 50 mM
Experimental: (§1) Uninterrupted Glycation with Glucose Bovine serum albumin, ribonuclease A, and human hemoglobin were incubated with glucose at 37° C. in 0.4 M sodium phosphate buffer of pH 7.5 containing 0.02% sodium azide. The protein, glucose (at 1.0 M), and prospective inhibitors (at 0.5, 3, 15 and 50 mM) were introduced into the incubation mixture simultaneously. Solutions were kept in the dark in capped tubes. Aliquots were taken and immediately frozen until analyzed by ELISA at the conclusion of the reaction. The incubations were for 3 weeks (Hb) or 6 weeks (RNase, BSA).
(§2) ELISA detection of AGE products. The general method of Engvall (1981, Methods Enzymol. 70:419-439) was used to perform the ELISA. Typically, glycated protein samples were diluted to approximately 1.5 ug/ml in 0.1 M sodium carbonate buffer of pH 9.5 to 9.7. The protein was coated overnight at room temperature onto 96-well polystyrene plates by pippetting 200 ul of the protein solution in each well (0.3 ug/well). After coating, the protein was washed from the wells with a saline solution containing 0.05% Tween-20. The wells were then blocked with 200 ul of 1% casein in carbonate buffer for 2 h at 37° C. followed by washing. Rabbit anti-AGE antibodies were diluted at a titer of about 1:350 in incubation buffer, and incubated for 1 h at 37° C., followed by washing. In order to minimize background readings, antibodies R479 used to detect glycated RNase were raised against glycated BSA, and antibodies R618 used to detect glycated BSA and glycated Hb were raised against glycated RNase. An alkaline phosphatase-conjugated antibody to rabbit IgG was then added as the secondary antibody at a titer of 1:2000 or 1:2500 (depending on lot) and incubated for 1 h at 37° C., followed by washing. The p-nitrophenylphosphate substrate solution was then added (200 ul/well) to the plates, with the absorbance of the released p-nitrophenolate being monitored at 410 nm with a Dynatech MR 4000 microplate reader.
FIGS. 1 A-D are graphs which show the effect of vitamin B6 derivatives on post-Amadori AGE formation in bovine serum albumin glycated with glucose. BSA (10 mg/ml) was incubated with 1.0 M glucose in the presence and absence of the various indicated derivative in 0.4 M sodium phosphate buffer of pH 7.5 at 37° C. for 6 weeks. Aliquots were assayed by ELISA using R618 anti-AGE antibodies. Concentrations of the inhibitors were 3, 15 and 50 mM. Inhibitors used in FIGS. (1A) Pyridoxamine (PM); (1B) pyridoxal phosphate (PLP); (1C) pyridoxal (PL); (1D) pyridoxine (PN).
FIGS. 2A-D are graphs which show the effect of vitamin B1 derivatives and aminoguanidine (AG) on AGE formation in bovine serum albumin. BSA (10 mg/ml) was incubated with 1.0 M glucose in the presence and absence of the various indicated derivative in 0.4 M sodium phosphate buffer of pH 7.5 at 37° C. for 6 weeks. Aliquots were assayed by ELISA using R618 anti-AGE antibodies. Concentrations of the inhibitors were 3, 15 and 50 mM. Inhibitors used in FIGS. (2A) Thiamine pyrophosphate (TPP); (2B) thiamine monophosphate (TP); (2C) thiamine (T); (2D) aminoguanidine (AG).

[2] = test system: AGE formation during uninterrupted glycation of ribonuclease A (RNase A) by ribose; assay: Uninterrupted ribose glycation assay, RNase; assay type: biochemical, bovine; conditions: continuous 0.05 M ribose, 6 weeks, inhibitors 0.5-50 mM
Experimental: as §2
as §1, with “ribose glycation assays” for “Glycation with Glucose”, “ribose” for “glucose”, “protein (10 mg/ml or 1 mg/ml), 0.05 M ribose,” for “protein, glucose (at 1.0 M),”, “BSA). Glycation reactions were monitored for constant pH throughout the duration of the experiments.” for “BSA).”
The inhibitory effects of vitamin B1 and B6 derivatives on the kinetics of antigenic AGE formation were evaluated by polyclonal antibodies specific for AGEs. Initial inhibition studies were carried out on the glycation of bovine ribonuclease A (RNase) in the continuous presence of 0.05 M ribose, which is the concentration of ribose where the rate of AGE formation is near maximal.

[3] = test system: post-Amadori AGE formation, BSA Amadori intermediate; assay: Interrupted (post-Amadori) ribose glycation assay, BSA; assay type: biochemical, bovine
Experimental: as §2
Glycation was first carried out by incubating protein (10 mg/ml) with 0.5 M ribose at 37° C. in 0.4 M phosphate buffer at pH 7.5 containing 0.2% sodium azide for 24 h in the absence of inhibitors. Glycation was then interrupted to remove excess and reversibly bound (Schiff base) sugar by extensive dialysis against frequent cold buffer changes at 4° C. The glycated intermediate samples containing maximal amount of Amadori product and little AGE (depending on protein) were then quickly warmed to 37° C. without re-addition of ribose. This initiated conversion of Amadori intermediates to AGE products in the absence or presence of various concentrations (typically 3, 15 and 50 mM) of prospective inhibitors. Aliquots were taken and frozen at various intervals for later analysis. The solutions were kept in capped tubes and opened only to remove timed aliquots that were immediately frozen for later carrying out the various analyses.

[4] = 24 h in 0.5 M ribose, then free ribose removed, 37° C.

SMILES | inhibition of antigenic AGE formation (ELISA) [1] | inhibition of overall kinetics of AGE formation from ribose [2] | inhibition of post-Amadori AGE formation [3, 4] | inhibition of post-Amadori AGE formation ([3]; 50 mM inhibitor)
Cc1ncc(CO)c(CN)c1O [pyridoxamine] | strongly suppressed antigenic AGE formation at even the lowest concentrations tested | best inhibitor of the “final” levels of AGE formed on RNase | – | –
Cc1ncc(C[n+]2csc(CCO[P@](=O)(O)OP(=O)(O)O)c2C)c(N)n1 [thiamine pyrophosphate] | effective at all concentrations tested | both the rate of AGE formation and the final levels of AGE produced at the plateau appeared diminished | inhibited AGE formation more effectively than the other B1 derivatives | –
N=C(N)NN [aminoguanidine, reference compound] | produced some inhibition of AGE formation in BSA, but less so than the above compounds | decreased the rate of AGE formation on RNase, but did not reduce the final level of AGE formed | Comparable results | about 20%
